Consider eleven compounds from ChEMBL document CHEMBL1201862, “PubChem BioAssay data set” (2004).

Common to all, as to experiment: NCI tumour cell line growth inhibition, 48 h
Assay [1] concerns SNB-75.
Assay [2] has as its system SW-620.
The subject of assay [3] is MOLT-4.
Assay [4] concerns MCF7.
Assay [5] deals with IGROV-1.
The subject of assay [6] is Malme-3M.
In assay [7] the test system is CCRF-CEM.
In assay [8] the test system is MDA-MB-435.
The test system of assay [9] is SF-295.
Assay [10] relates to COLO 205.
The test system of assay [11] is SN12C.
For assay [12], the system named is HL-60.
Assay [13] deals with SK-MEL-5.
The subject of assay [14] is A549.
For assay [15], the system named is SF-539.
In assay [16] the test system is T47D.
The test system of assay [17] is HOP-62.
In assay [18] the test system is HCT-116.
Assay [19] deals with NCI-H23.

The structures appear in SMILES notation.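 Where inhibition never reached the appropriate level, the endpoint shown equals the highest concentration tested. Otherwise, values were interpolated linearly from a five-concentration, 48-hour dose response in 96-well plates. GI50 marks 50% less growth.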 Calls of active or inactive are those of the source. Cut-off read from the data, not from the text of the source: active = GI50 up to about 1.1 µM and inactive = higher.

For `Cc1ccc(/C=N/Nc2cnccn2)s1`, the GI50 was > 100 µM (inactive) in assay [1]; > 100 µM (inactive) in assay [2]; 65.2 µM (inactive) in [3]; 17.4 µM (inactive) in assay [4]; > 100 µM (inactive) in assay [5]; > 100 µM (inactive) in assay [6]. Further, the GI50 was > 100 µM (inactive) in [7]; > 100 µM (inactive) in assay [8]; > 100 µM (inactive) in assay [9]; > 100 µM (inactive) in assay [10]; 42.6 µM (inactive) in assay [11]; > 100 µM (inactive) in assay [12]. The GI50 in [13], in [14], in assay [15], in [16], in assay [17] and in [18] was > 100 µM (inactive) each time. The GI50 in assay [19] was > 100 µM (inactive).
`N#Cc1nc(-c2cccc(-c3nc(C#N)c(N)o3)n2)oc1N`: the GI50 in assay [1], in assay [2], in assay [3], in assay [4], in assay [5] and in assay [6] was > 100 µM (inactive) each time. Moreover, the GI50 is 21.2 µM (inactive) in [7]; > 100 µM (inactive) in [8]; > 100 µM (inactive) in assay [9]; > 100 µM (inactive) in assay [10]; > 100 µM (inactive) in assay [11]; 64.7 µM (inactive) in assay [12]. Further, the GI50 in assay [13], in assay [14], in assay [15], in [16], in assay [17] and in assay [18] was > 100 µM (inactive) throughout. Also, the GI50 in assay [19] is > 100 µM (inactive).
With `CC(C)(C)[Si](C)(C)OCC1C=CC(n2cnc3c(N)ncnc32)O1` (centres undefined), the GI50 in assay [1] is 16.6 µM (inactive); in [2] it was 21 µM (inactive); in assay [3] it was 10.1 µM (inactive); in assay [4] it was 30.1 µM (inactive); in assay [5], 46.6 µM (inactive); in [6], 61.1 µM (inactive). The GI50 in assay [7] was 8.32 µM (inactive); in assay [8], 22.3 µM (inactive); in assay [9], 55.2 µM (inactive); in assay [10], > 73.1 µM (inactive); in assay [11], 35.9 µM (inactive); in [12], 9.02 µM (inactive). For the same compound, the GI50 is 15.4 µM (inactive) in [13]; > 100 µM (inactive) in [14]; > 47.4 µM (inactive) in assay [15]; 20.6 µM (inactive) in [16]; 69.8 µM (inactive) in assay [17]; 20.1 µM (inactive) in assay [18]. Also, in [19], the GI50 was 39.1 µM (inactive).
Regarding `NCCN1C(=O)c2cc(Cl)c(Cl)cc2C1(O)c1ccc(Cl)cc1` (centres undefined), the GI50 is 2.28 µM (inactive) in assay [1]; 1.9 µM (inactive) in assay [2]; 2.05 µM (inactive) in [3]; 1.83 µM (inactive) in assay [4]; 2.07 µM (inactive) in assay [5]; 1.71 µM (inactive) in [6]. Further, the GI50 in assay [7] is 3.61 µM (inactive); in assay [8], 1.68 µM (inactive); in assay [9], 2.01 µM (inactive); in [10] it was 1.65 µM (inactive); in assay [11], 3.72 µM (inactive); in assay [12], 1.67 µM (inactive). In addition, the GI50 in [13] was 1.6 µM (inactive); in [14], 2.09 µM (inactive); in [15], 1.7 µM (inactive); in assay [16] it was 2.11 µM (inactive); in [17], 1.85 µM (inactive); in assay [18] it was 1.72 µM (inactive). Besides, the GI50 in assay [19] was 2.69 µM (inactive).
On to `Nc1ccc(C(=O)O)cc1.Nc1nc(N)c2nc[nH]c2n1`, for which the GI50 in assay [1] was 2.44 µM (inactive); in assay [2], 25.7 µM (inactive); in assay [3], 41.4 µM (inactive); in [4] it was 3.97 µM (inactive); in assay [5], 29.9 µM (inactive); in assay [6], 69.2 µM (inactive). The GI50 in assay [7] was 19.6 µM (inactive); in assay [8] it was 12.2 µM (inactive); in [9] it was 25 µM (inactive); in assay [10] it was 25.9 µM (inactive); in [11] it was 39 µM (inactive); in [12], 31.4 µM (inactive). The GI50 in [13] is 21.5 µM (inactive); in assay [14], 13.3 µM (inactive); in assay [15], > 100 µM (inactive); in [16], 3.27 µM (inactive); in assay [17] it was 20.7 µM (inactive); in [18] it was 15.2 µM (inactive). The GI50 in assay [19] was 23.5 µM (inactive).
As for `Clc1nc(NC23CC4CC(CC(C4)C2)C3)nc(NC23CC4CC(CC(C4)C2)C3)n1`, the GI50 in [1] was 18 µM (inactive); in [2], 62.4 µM (inactive); in assay [3] it was 17.5 µM (inactive); in assay [4], 12.6 µM (inactive); in assay [5], > 100 µM (inactive); in [6] it was > 100 µM (inactive). The GI50 was 17 µM (inactive) in assay [7]; 92.3 µM (inactive) in [8]; 16.4 µM (inactive) in assay [9]; > 67.3 µM (inactive) in [10]; > 83.4 µM (inactive) in assay [11]; 19.9 µM (inactive) in assay [12]. For the same compound, the GI50 in [13] was 47.3 µM (inactive); in assay [14], 43.9 µM (inactive); in [15] it was > 75.9 µM (inactive); in assay [16], 10.5 µM (inactive); in assay [17] it was 44.2 µM (inactive); in assay [18], 15.6 µM (inactive). The GI50 in assay [19] was 38.5 µM (inactive).
As for `C1=C(c2ccccc2)SC=C(c2ccccc2)S1`, the GI50 is 1.68 µM (inactive) in [1]; 25.9 µM (inactive) in [2]; 25.3 µM (inactive) in assay [3]; 16.9 µM (inactive) in assay [4]; 19.9 µM (inactive) in assay [5]; 45.5 µM (inactive) in assay [6]. The GI50 is 57.1 µM (inactive) in [7]; 5.48 µM (inactive) in [8]; 29.2 µM (inactive) in assay [9]; 30.1 µM (inactive) in [10]; 29.9 µM (inactive) in [11]; 65.9 µM (inactive) in [12]. Further, the GI50 in assay [13] is 19.6 µM (inactive); in assay [14], 32.1 µM (inactive); in [15], 31.7 µM (inactive); in [16], 53.3 µM (inactive); in assay [17] it was > 100 µM (inactive); in [18], 44.5 µM (inactive). Moreover, the GI50 in assay [19] was 72.8 µM (inactive).
Take `CCCCn1c(C)c(C(=O)OCC)c2cc(OCc3ccc(C(=O)Nn4c(C)ccc4C)cc3)c(Br)cc21`: the GI50 in [1], in [2], in [3], in [4], in [5] and in [6] was > 100 µM (inactive) in each case. In addition, the GI50 in assay [7], in [8], in assay [9], in [10], in [11] and in [12] was > 100 µM (inactive) in each case. The GI50 in assay [13], in assay [14], in assay [15], in assay [16], in [17] and in [18] was > 100 µM (inactive) in each case. Moreover, the GI50 in assay [19] is > 100 µM (inactive).
As for `O=C(O)c1cncc(C(=O)O)c1`, the GI50 in [1], in assay [2], in assay [3], in assay [4], in assay [5] and in assay [6] was > 100 µM (inactive) throughout. In addition, the GI50 in assay [7], in [8], in assay [9], in [10], in assay [11] and in assay [12] was > 100 µM (inactive) in each case. In addition, the GI50 in assay [13], in assay [14], in assay [15], in assay [16], in [17] and in assay [18] was > 100 µM (inactive) each time. In addition, in assay [19], the GI50 was > 100 µM (inactive).
As for `CSc1cc(-c2ccccn2)nc(-c2ccccn2)c1`, the GI50 in assay [1] is 0.689 µM (active); in assay [2], 0.126 µM (active); in assay [3], 0.0421 µM (active); in assay [4], 0.324 µM (active); in assay [5], 0.102 µM (active); in [6], 0.102 µM (active). In addition, the GI50 in assay [7] was 0.0527 µM (active); in [8], 0.327 µM (active); in assay [9] it was 0.0566 µM (active); in [10], 0.125 µM (active); in assay [11] it was 0.0991 µM (active); in assay [12], 0.0492 µM (active). Moreover, the GI50 is 0.126 µM (active) in assay [13]; 0.137 µM (active) in [14]; 0.171 µM (active) in [15]; 0.346 µM (active) in assay [16]; 0.0329 µM (active) in [17]; 0.0682 µM (active) in [18]. The GI50 in assay [19] is 0.398 µM (active).
As for `N#Cc1nc(-c2cccs2)oc1N`, the GI50 in [1] was 92.3 µM (inactive); in assay [2], > 100 µM (inactive); in assay [3], > 100 µM (inactive); in assay [4], 83.2 µM (inactive); in assay [5] it was > 100 µM (inactive); in assay [6] it was > 100 µM (inactive). Besides, the GI50 in [7] was 70.6 µM (inactive); in [8], > 100 µM (inactive); in [9], > 100 µM (inactive); in [10], > 100 µM (inactive); in [11], > 100 µM (inactive); in [12], 56.8 µM (inactive). The GI50 in assay [13], in [14], in [15], in assay [16], in [17] and in assay [18] was > 100 µM (inactive) in each case. The GI50 in assay [19] is > 100 µM (inactive).
